Molecules are shown by their SMILES. ≈ marks a conversion by molar mass, not a printed value. Where “and” joins values, the source holds several entries; their conditions need not be identical. Equal entries are not always repeated.

The IC50 is the concentration at which inhibition is half-maximal.

One test relates to fatty acid oxidation. As to the kind of experiment: β-Oxidation assay, isolation of acid soluble products. Details: Beta Oxidation: unit not given here. Type of test: cell-based. Conditions: for FAO MAx: maximal fatty acid oxidation, at the concentration given under E32. The procedure:
β-Oxidation Assay—Isolation of Acid Soluble Products A 24 well plate with 1 ml per well was prepared with 2.5×10^5 cells/well. The cells were incubated O/N. The next day, a solubilized palmitate solution was prepared. 50 μls of (1-^14C) Palmitic acid was added to a 2 ml centrifuge tube and dried under nitrogen gas. 2 mls of α-CD (α-Cyclodextran)-10 mg/ml in 10 mM Tris were added. This solution was incubated in a 37° C. water bath for 30 minutes. A hot mix was prepared by adding 25 μls of this solution to 2.5 μls of 200 μM Carnitine and 222.5 μls of serum free medium that is used for cells. The cells were then treated with the test compound in triplicate, and incubated at 37° C. for 60 minutes. The medium was removed and 250 μls of the hot mix were added. The test compound was added again, and further incubated at 37° C. for 60 minutes. The reaction was stopped with 50 μls of 2.6 N HClO4. The contents of the plate were transferred to a 1.5 ml centrifuge tube, and 50 μls of 4N KOH were then added, and the tube incubated in a 60° C. water bath for 30 min. Sodium acetate (1M, 75 μls) and sulfuric acid (3N, 50 μls) were added to the solution and vortexed. The tube was spun for 7 minutes at 1000 rpm at room temperature. A portion (225 μls) was removed, and the following were added (vortex after each addition, twice at the end): 938 μls of 1:1 Chloroform:Methanol; 468 μls of Chloroform; 281 μls distilled Water. The tubes were spun at 1000 rpm for 5 minutes. The upper phase was removed into a large glass scintillation vial and 5 mls of Budget solvent (scintillation liquid) was added. The tubes were well vortexed. Finally, C14 was counted for one minute.

A further test in a line: Weight loss screen. Type of test: in vivo, Balb/C mice. The conditions noted are these: 60 mg/kg. The protocol:
Weight Loss Screen for Novel FAS Inhibitors Balb/C mice (Jackson Labs) are utilized for the initial weight loss screening. Animals are housed in temperature and 12 hour day/night cycle rooms and fed mouse chow and water ad lib. Three mice are utilized for each compound tested with vehicle controls in triplicate per experiment. For the experiments, mice are housed separately for each compound tested three mice to a cage. Compounds are diluted in DMSO at 10 mg/ml and mice are injected intraperitoneally with 60 mg/kg in approximately 100 μl of DMSO or with vehicle alone. Mice are observed and weighed daily; average weights and standard errors are computed with Excel (Microsoft). The experiment continues until treated animals reach their pretreatment weights. Select compounds are tested in animals housed in metabolic cages. Dosing of animals are identical to the screening experiments with three animals to a single metabolic cage. Animal weights, water and food consumption, and urine and feces production are measured daily.

The next test relates to (O). Briefly: XTT cytotoxicity assay (O). Conditions: read-out: XTT (IC50) (O). Type of test: cell-based. The protocol: (§1) The XTT assay is a non-radioactive alternative for the [^51Cr] release cytotoxicity assay. XTT is a tetrazolium salt that is reduced to a formazan dye only by metabolically active, viable cells. The reduction of XTT is measured spectrophotometrically as OD490-OD650.
(§2) After 72 hours of incubation, cells are incubated for 4 hours with the XTT reagent as per manufacturer's instructions (Cell Proliferation Kit II (XTT) Roche). Plates are read at OD490 and OD650 on a Molecular Devices SpectraMax Plus Spectrophotometer. Three wells containing the XTT reagent without cells serve as the plate blank. XTT data are reported as OD490-OD650. Averages and standard error of the mean are computed using SOFTmax Pro software ([…]).
(§3) The IC50 for the compounds is defined as the concentration of drug leading to a 50% reduction in OD490-OD650 compared to controls. The OD490-OD650 are computed by the SOFTmax PRO software (Molecular Devices) for each compound concentration. IC50 is calculated by linear regression, plotting the FAS activity as percent of control versus drug concentrations. Linear regression, best-fit line, r^2, and 95% confidence intervals are determined using Prism Version 3.0 (Graph Pad Software).
(Tetrazolium assays rely on reduction of a dye to a coloured formazan, in cell work by metabolically active cells.)

In test [1] the test system is MCF-7 human breast cancer cells. Briefly: XTT cytotoxicity assay (M). Conditions: MCF7. Type of test: cell-based. The protocol: as §1
To measure the cytotoxicity of specific compounds against cancer cells, 9×10^3 MCF-7 human breast cancer cells, obtained from the American Type Culture Collection are plated per well in 96 well plates in DMEM medium with 10% fetal bovine serum, insulin, penicillin, and streptomycin. Following overnight culture at 37° C. and 5% CO2, the compounds to be tested, dissolved in DMSO, are added to the wells in 1 μl volume at the following concentrations: 80, 40, 20, 10, 5, 2.5, 1.25, and 0.625 μg/ml in triplicate. Additional concentrations are tested if required. 1 μl of DMSO is added to triplicate wells are the vehicle control. C75 is run at 40, 20, […], and 5 μg/ml in triplicate as positive controls.
as §2, §3

Consider `CCCCCCCCCCC1(C)SC(=O)C(C)(C)C1=O` (stereo not drawn) [Compound 12, 3,3,5-Trimethyl-5-decyl-thiophene-2,4-dione], for which, in the test with fatty acid oxidation, the “FAO MAx, concentration at maximum” value is 1.56 µg/mL. The “FAO SC 150” value in the test on fatty acid oxidation was 1.4 µg/mL. The “Beta Oxidation” value with fatty acid oxidation (0.097 ug/ml) stood at 100; in the test on fatty acid oxidation (0.39 ug/ml), 120; in the test with fatty acid oxidation (1.56 ug/ml) it was 154; in the test with fatty acid oxidation (6.25 ug/ml) it was 141; in the test with fatty acid oxidation (25 ug/ml) it was 75; in the test on fatty acid oxidation (100 ug/ml), 68. Besides, the “FAO MAx” value with fatty acid oxidation was determined as 154%. Besides, in “Weight loss screen” (day 2), the “Weight Loss” value is on record as 60 mg/kg: 9.0% (day 2). Besides, the IC50 was greater than 80 µg/mL in the test on (O) and 23.2 µg/mL (≈ 77.7 µM) in test [1].
Consider `C=CCC1(CC=C)C(=O)SC(C)(CCCCCCCCCC)C1=O` (stereo not drawn) [Compound 15, 3,3-Diallyl-5-methyl-5-decyl-thiophene-2,4-dione], for which the “FAO MAx, concentration at maximum” value in the test on fatty acid oxidation came out at 25 µg/mL. Besides, in the test on fatty acid oxidation, the “FAO SC 150” value was determined as 16.0 µg/mL. Further, the “Beta Oxidation” value in the test on fatty acid oxidation (0.097 ug/ml) is 105; in the test with fatty acid oxidation (0.39 ug/ml), 114; with fatty acid oxidation (1.56 ug/ml), 127; with fatty acid oxidation (6.25 ug/ml) it was 138; in the test with fatty acid oxidation (25 ug/ml) it was 165; in the test with fatty acid oxidation (100 ug/ml) it was 150. Besides, the “FAO MAx” value in the test on fatty acid oxidation amounted to 165%. Moreover, the “Weight Loss” value in “Weight loss screen” (day 2) is recorded as 60 mg/kg: 3.5% (day 2). Also, the IC50 with (O) was greater than 80 µg/mL; in test [1] it was 71.8 µg/mL (≈ 205 µM).
As to `C=CCC1(CC=C)C(=O)SC(C)(CCCCCCCC)C1=O` (racemic) [Compound 4, 3,3-Diallyl-5-methyl-5-octyl-thiophene-2,4-dione], the “Beta Oxidation” value in the test with fatty acid oxidation (1.25 ug/ml) was 94 and 151; with fatty acid oxidation (2.5 ug/ml), 114 and 163; in the test with fatty acid oxidation (5 ug/ml), 120 and 154 and 177; with fatty acid oxidation (10 ug/ml) it was 163 and 177 and 184; in the test on fatty acid oxidation (20 ug/ml) it was 147; in the test with fatty acid oxidation (40 ug/ml), 101. Further, the “Weight Loss” value in the test “Weight loss screen” (day 1) was 7.9% and 8.0% and 6.8%. The IC50 in the test on (O) came out at 53.7 ± 1 µg/mL (≈ 167 µM); in test [1], 40.5 ± 14.8 µg/mL (≈ 126 µM).

Values taken from patent US20090005435A1, “Novel Compounds, Pharmaceutical Compositions Containing Same, and Methods of Use for Same” (priority 2004, published 2009).
